Biological target: T1, wild-type human melanocortin 4 receptor (WT-hMC4R) (Homo sapiens, UniProt P32245)
T1 construct: expressed in transfected cells; cDNA from UMR cDNA resource center
Assay: Cyclic AMP assay (HTRF), antagonist competition against NDP-α-MSH
Assay type: cell-based
Settings: HEK293T cells expressing double-tagged WT-hMC4R; cAMP accumulation; 1 hour compound then 4 nM NDP-α-MSH 30 min
Procedure: Intracellular cyclic 3′-5′ adenosine monophosphate (cAMP) accumulation was measured using a competitive immunoassay based on HTRF (Homogeneous Time-Resolved Fluorescence) technology (cAMP dynamic-2, Cis-Bio).
HEK293T stable cell line expressing double-tagged WT-hMC4R construct were collected and washed in cAMP buffer (1XD-PBS pH 7.4, 0.1% glucose). 40,000 cells/well were then dispensed in 96-well plates in cAMP buffer [1XD-PBS, 1% BSA, 0.1% Glucose, 0.75 mM 3-isobutyl-1methyl-xanthine (IBMX, Sigma)] and incubated either for antagonist competition assay: 1 hour at 37° C. with various concentrations of compound [0.01 nM-10 μM] followed by 30 min incubation at 37° C. with 4 nM of NDP-α-MSH (Sigma) or for agonist assay: 1 hour at 37° C. with various concentrations of compound [0.01 nM-10 μM]. 10,000 cells were transferred in 384-well plates, lysed and incubated with cAMP labeled with the dye d2 and anti-cAMP M-Antibody labeled with Cryptate following the manufacturer's protocol.
Reading of HTRF signal was performed on Artemis TR-FRET plate reader (Cosmo Bio).
All curve fitting was conducted using non-linear regression analyses from PRISM (version 4.0c, GraphPad Inc.) and the determination of Rmax and EC50 or IC50 parameters were obtained from sigmoidal dose-response phase (variable slope) equation.
A cDNA encoding a wild-type human MC4R with a 3 tandem copies of Hemaglutinine (HA) epitote sequence from UMR cDNA resource center was modified using known techniques in the art (e.g., PCR, cloning) to fused in frame at the C-terminal a venus-Yellow Fluorescent Protein (YFP) cDNA.
The resultant cDNA was then subcloned in eukaryotic expression vector, e.g. pcDNA 3.1(+) (Invitrogen).
The double tagged WT-hMC4R was transfected in HEK293T cells with lipofectamine (Invitrogen) following the manufacturer's instructions and permanently transfected clonal cell lines were selected by resistance to the neomycin analog G418.
HEK293T stable cell line expressing wild-type human melanocortin 4 receptor (WT-hMC4R) containing an N-terminal 3xHA epitope tag and an intracellular C-terminal venus-yellow fluorescent protein (v-YFP) were maintained at 37° C. in humidified air containing 5% CO2 in Dulbecoo's modified Eagle's medium (DMEM) supplemented with 10% fetal bovine serum (FBS), 100 U/ml penicillin/streptomycin (DMEM complete/10% FBS). Cells were generally at 70%-80% confluence on the day of assay.

T1 sequence (P32245 whole entry): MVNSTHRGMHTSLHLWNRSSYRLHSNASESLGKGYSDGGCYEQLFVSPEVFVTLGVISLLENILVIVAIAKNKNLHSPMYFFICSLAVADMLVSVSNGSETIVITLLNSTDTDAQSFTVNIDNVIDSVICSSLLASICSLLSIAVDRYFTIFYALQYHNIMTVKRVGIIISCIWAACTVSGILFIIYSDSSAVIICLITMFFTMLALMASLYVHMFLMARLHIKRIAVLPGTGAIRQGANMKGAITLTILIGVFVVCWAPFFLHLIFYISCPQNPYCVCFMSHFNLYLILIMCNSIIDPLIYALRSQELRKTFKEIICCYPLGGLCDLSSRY

Row | SMILES | IC50 [µM]
1 | CCCCN(CCCC)C(=O)c1ccn2nc(-c3ccc(F)cc3)c(/C=C/CN3CCCCC3)c2c1 [Example 51] | 1 to 5
2 | CCCCCN(CCCCC)C(=O)c1ccn2nc(-c3ccc(F)cc3)c(/C=C/CN3CCCCC3)c2c1 [Example 53] | 1 to 5
3 | CC(C)CCN(CCC(C)C)C(=O)c1ccn2nc(-c3ccccc3)c(CCCN3CCCCC3)c2c1 [Example 55] | 1 to 5
4 | CCCCN(CCCC)C(=O)c1ccn2nc(-c3ccccc3)c(/C=C/CN3CCCCC3)c2c1 [Example 57] | 1 to 5
5 | CCCCCN(CCCCC)C(=O)c1ccn2nc(-c3ccccc3)c(/C=C/CN3CCCCC3)c2c1 [Example 59] | 1 to 5
6 | CCCCCN(CCCCC)C(=O)c1ccn2nc(-c3ccc(C)cc3)c(CCCN3CCCCC3)c2c1 [Example 62] | 1 to 5
7 | CCCCCN(CCCCC)C(=O)c1ccn2nc(-c3ccc(C)cc3)c(/C=C/CN3CCCCC3)c2c1 [Example 65] | 1 to 5
8 | CCCCCN(CCCCC)C(=O)c1ccn2nc(-c3cc(OC)c(OC)c(OC)c3)c(CCCN3CCCCC3)c2c1 [Example 68] | 0.5 to 1
9 | CCCCN(CCCC)C(=O)c1ccn2nc(-c3cc(OC)c(OC)c(OC)c3)c(/C=C/CN3CCCCC3)c2c1 [Example 69] | 0.5 to 1
10 | CCCCCN(CCCCC)C(=O)c1ccn2nc(-c3cc(OC)c(OC)c(OC)c3)c(/C=C/CN3CCCCC3)c2c1 [Example 71] | 1 to 5
11 | CC(C)CCN(CCC(C)C)C(=O)c1ccn2nc(-c3cccc(Cl)c3)c(/C=C/CN3CCCCC3)c2c1 [Example 72, (E)-2-(3-chlorophenyl)-N,N-diisopentyl-3-(3-(piperidin-1-yl)prop-1-en-1-yl)pyrazolo[1,5-a]pyridine-5-carboxamide] | 0.5 to 1
12 | CC(C)CCN(CCC(C)C)C(=O)c1ccn2nc(-c3cccc(C(=O)O)c3)c(/C=C/CN3CCCCC3)c2c1 [Example 73] | 1 to 5
13 | CC(C)CCN(CCC(C)C)C(=O)c1ccn2nc(-c3cccc(C(=O)O)c3)c(CCCN3CCCCC3)c2c1 [Example 74] | 1 to 5
14 | CC(C)CCN(CCC(C)C)C(=O)c1ccn2nc(-c3ccc(C(=O)O)cc3)c(CCCN3CCCCC3)c2c1 [Example 75] | 1 to 5
15 | CC(C)CCN(CCC(C)C)C(=O)c1ccn2nc(-c3ccc(OCc4ccccc4)cc3)c(/C=C/CN3CCCCC3)c2c1 [Example 76] | 1 to 5
16 | CCOc1ccc(-c2nn3ccc(C(=O)N(CCC(C)C)CCC(C)C)cc3c2/C=C/CN2CCC(F)(F)CC2)cc1 [Example 79] | 5 to 15
17 | CCOc1ccc(-c2nn3ccc(C(=O)N(CCC(C)C)CCC(C)C)cc3c2CCCN2CCC(F)(F)CC2)cc1 [Example 80] | 5 to 15
18 | CCOc1ccc(-c2nn3ccc(C(=O)N(CCC(C)C)CCC(C)C)cc3c2/C=C/CN2CCC(C(F)(F)F)CC2)cc1 [Example 81] | 5 to 15
19 | CCOc1ccc(-c2nn3ccc(C(=O)N(CCC(C)C)CCC(C)C)cc3c2CCCN2CCC(C(F)(F)F)CC2)cc1 [Example 82] | 5 to 15
20 | CCCCN(CCCC)C(=O)c1ccn2nc(-c3cc(OC)cc(OC)c3)c(/C=C/CN3CCCCC3)c2c1 [Example 85] | 0.5 to 1
21 | CCCCN(CCCC)C(=O)c1ccn2nc(-c3cc(OC)cc(OC)c3)c(CCCN3CCCCC3)c2c1 [Example 87] | 1 to 5
22 | COc1ccc(-c2nn3ccc(C(=O)N(CCC(C)C)CCC(C)C)nc3c2/C=C/CN2CCCCC2)cc1 [Example 88, (E)-N,N-Diisopentyl-2-(4-methoxyphenyl)-3-(3-(piperidin-1-yl)prop-1-en-1-yl)pyrazolo[1,5-a]pyrimidine-5-carboxamide] | 1 to 5
23 | CC(C)CCN(CCC(C)C)C(=O)c1ccn2nc(-c3ccc(C(N)=O)cc3)c(/C=C/CN3CCCCC3)c2c1 [Example 91] | 0.5 to 1
24 | CC(C)CCN(CCC(C)C)C(=O)c1ccn2nc(-c3ccc(Br)cc3)c(/C=C/CN3CCOCC3)c2c1 [Example 93] | 5 to 15
25 | CC(C)CCN(CCC(C)C)C(=O)c1ccn2nc(-c3cccc(-c4nnn[nH]4)c3)c(CCCN3CCCCC3)c2c1 [Example 94] | 0.5 to 1
26 | COc1ccc(Cl)cc1-c1nn2ccc(C(=O)N(CCC(C)C)CCC(C)C)cc2c1C#CCCN1CCCCC1 [Example 97] | 1 to 5
27 | CC(C)CCN(CCC(C)C)C(=O)c1ccn2nc(-c3ccc(-c4nnn[nH]4)cc3)c(CCCN3CCCCC3)c2c1 [Example 98] | 1 to 5
28 | COc1ccc(-c2nn3ccc(C(=O)N(CCC(C)C)CCC(C)C)nc3c2/C=C/CN2CCCC2)cc1 [Example 99] | 1 to 5

Continued, values first:

Row | IC50 [µM] | SMILES
29 | 0.5 to 1 | CC(C)CCN(CCC(C)C)C(=O)c1ccn2nc(-c3ccc(F)cc3)c(/C=C/CN3CCCCC3)c2c1 [Example 52]
30 | 0.5 to 1 | CCCCN(CCCC)C(=O)c1ccn2nc(-c3ccccc3)c(CCCN3CCCCC3)c2c1 [Example 54]
31 | 0.5 to 1 | CCCCCN(CCCCC)C(=O)c1ccn2nc(-c3ccccc3)c(CCCN3CCCCC3)c2c1 [Example 56]
32 | 0.5 to 1 | CC(C)CCN(CCC(C)C)C(=O)c1ccn2nc(-c3ccccc3)c(/C=C/CN3CCCCC3)c2c1 [Example 58]
33 | 0.5 to 1 | CCCCN(CCCC)C(=O)c1ccn2nc(-c3ccc(C)cc3)c(CCCN3CCCCC3)c2c1 [Example 60]
34 | < 0.5 | Cc1ccc(-c2nn3ccc(C(=O)N(CCC(C)C)CCC(C)C)cc3c2CCCN2CCCCC2)cc1 [Example 61]
35 | 0.5 to 1 | CCCCN(CCCC)C(=O)c1ccn2nc(-c3ccc(C)cc3)c(/C=C/CN3CCCCC3)c2c1 [Example 63]
36 | < 0.5 | Cc1ccc(-c2nn3ccc(C(=O)N(CCC(C)C)CCC(C)C)cc3c2/C=C/CN2CCCCC2)cc1 [Example 64]
37 | 0.5 to 1 | CCCCN(CCCC)C(=O)c1ccn2nc(-c3cc(OC)c(OC)c(OC)c3)c(CCCN3CCCCC3)c2c1 [Example 66]
38 | < 0.5 | COc1cc(-c2nn3ccc(C(=O)N(CCC(C)C)CCC(C)C)cc3c2CCCN2CCCCC2)cc(OC)c1OC [Example 67]
39 | < 0.5 | COc1cc(-c2nn3ccc(C(=O)N(CCC(C)C)CCC(C)C)cc3c2/C=C/CN2CCCCC2)cc(OC)c1OC [Example 70]
40 | < 0.5 | CC(C)CCN(CCC(C)C)C(=O)c1ccn2nc(-c3cccc(C(N)=O)c3)c(/C=C/CN3CCCCC3)c2c1 [Example 77]
41 | < 0.5 | CC(C)CCN(CCC(C)C)C(=O)c1ccn2nc(-c3ccc(O)cc3)c(CCCN3CCCCC3)c2c1 [Example 78]
42 | < 0.5 | CC(C)CCN(CCC(C)C)C(=O)c1ccn2nc(-c3cccc(Cl)c3)c(CCCN3CCCCC3)c2c1 [Example 83, 2-(3-Chlorophenyl)-N,N-diisopentyl-3-(3-(piperidin-1-yl)propyl)pyrazolo[1,5-a]pyridine-5-carboxamide]
43 | < 0.5 | COc1cc(OC)cc(-c2nn3ccc(C(=O)N(CCC(C)C)CCC(C)C)cc3c2/C=C/CN2CCCCC2)c1 [Example 84]
44 | < 0.5 | COc1cc(OC)cc(-c2nn3ccc(C(=O)N(CCC(C)C)CCC(C)C)cc3c2CCCN2CCCCC2)c1 [Example 86]
45 | < 0.5 | CC(C)CCN(CCC(C)C)C(=O)c1ccn2nc(-c3cccc(C(N)=O)c3)c(CCCN3CCCCC3)c2c1 [Example 90]
46 | < 0.5 | CC(C)CCN(CCC(C)C)C(=O)c1ccn2nc(-c3cccc(C#N)c3)c(CCCN3CCCCC3)c2c1 [Example 92]
47 | < 0.5 | CC(C)CCN(CCC(C)C)C(=O)c1ccn2nc(-c3ccc(C(N)=O)cc3)c(CCCN3CCCCC3)c2c1 [Example 95]
48 | < 0.5 | CC(C)CCN(CCC(C)C)C(=O)c1ccn2nc(-c3ccc(C#N)cc3)c(CCCN3CCCCC3)c2c1 [Example 96]

— patent US9018395B2, “Pyrazolopyridine and pyrazolopyrimidine derivatives as melanocortin-4 receptor modulators” (Université de Montréal, priority 2011, dated 2015)
